In patent publication US11491120B2, “Pharmacological prophylactics against stress-induced affective disorders in females” (The Trustees of Columbia University in the City of New York, priority 2017, dated 2022):
“Also recorded” adds a separate entry of the source.

Tested on: female 129S6/SvEv mice
Experiment: Forced swim test (FST), immobility time, after stress
Details: for Immobility in the FST (Day 1 and Day 2) vs saline: drug administered 1 hour after 3-shock CFC stressor; for Prophylactic efficacy against stress-induced depressive-like behavior: single injection 1 week before stressor
[1] = Ovariectomized cohort, 1 week prophylactic drug, Forced Swim Test Day 1, OVX mice, K (10), (2R,6R)-HNK (0.025)
[2] = Ovariectomized cohort, 1 week prophylactic drug, Forced Swim Test Day 1, Sham mice, K (10), (2R,6R)-HNK (0.025)
[3] = Ovariectomized cohort, 1 week prophylactic drug, Forced Swim Test Day 1, Sham vs OVX, same drug, K (10), (2R,6R)-HNK (0.025)
[4] = Ovariectomized, E2/P4 replacement, 1 week prophylactic drug, Forced Swim Test Day 2, K (10), (2R,6R)-HNK (0.025), FIG. 5F
[5] = Ovariectomized, same drug, hormone Vehicle vs. E2/P4 replacement, 1 week prophylactic drug, Forced Swim Test Day 2, K (10), (2R,6R)-HNK (0.025), FIG. 5F
[6] = Sal vs. K (2.5), Fisher's PLSD, 3 day prophylactic drug/Forced Swim Test Day 1
[7] = Sal vs. K (10), Fisher's PLSD, 1 week prophylactic drug, learned helplessness stress, Forced Swim Test Day 1
[8] = Sal vs. K (10), Fisher's PLSD, 3 day prophylactic drug/Forced Swim Test Day 1
[9] = Sal vs. K (10), Fisher's PLSD, Antidepressant drug/Forced Swim Test Day 2
[10] = Sal vs. K (30), Fisher's PLSD, 3 day prophylactic drug/Forced Swim Test Day 1
[11] = Sham-operated females, 1 week prophylactic drug, Forced Swim Test Day 2, K (10), (2R,6R)-HNK (0.025), FIG. 5C
[12] = female mice, listed as (R, S)-ketamine

**Q.** Which “p, Immobility Time (min 1-6), OVX Sal vs OVX drug” value [1] does the source give for `CNC1(c2ccccc2Cl)CCCCC1=O` (racemic) [(R,S)-ketamine, (RS)-2-(2-chlorophenyl)-2-(methylamino)cyclohexanone] here?
**A.** 0.0920

**Q.** And the “p, Immobility Time Average (min 3-6), Fisher's PLSD, OVX Sal vs OVX drug” value [1]?
**A.** 0.0570

**Q.** What about the “* (significance), Immobility Time (min 1-6), Sham Sal vs Sham drug” value [2] of the same molecule?
**A.** * (* p<0.05)

**Q.** And the “* (significance), Immobility Time Average (min 3-6), Fisher's PLSD, Sham Sal vs Sham drug” value [2]?
**A.** * (* p<0.05)

**Q.** What about the “p, Immobility Time (min 1-6), Sham Sal vs Sham drug” value [2] of the same molecule?
**A.** 0.0140

**Q.** What about the “p, Immobility Time Average (min 3-6), Fisher's PLSD, Sham Sal vs Sham drug” value [2] of the same molecule?
**A.** 0.0114

**Q.** What about the “* (significance), Immobility Time Average (min 3-6), Fisher's PLSD, Sham drug vs OVX drug” value [3] of the same molecule?
**A.** * (* p<0.05)

**Q.** What about the “p, Immobility Time (min 1-6), Sham drug vs OVX drug” value [3] of the same molecule?
**A.** 0.0533

**Q.** And the “p, Immobility Time Average (min 3-6), Fisher's PLSD, Sham drug vs OVX drug” value [3]?
**A.** 0.0233

**Q.** And the “p, Fisher's PLSD, Immobility Time Average (min 3-6), OVX Sal vs. OVX drug” value (Ovariectomized females, 1 week prophylactic drug, Forced Swim Test Day 2, K (10), (2R,6R)-HNK (0.025), FIG. 5C)?
**A.** 0.7305

**Q.** And the “p, Fisher's PLSD, Immobility Time Average (min 3-6), E2/P4 Sal vs. E2/P4 drug” value [4]?
**A.** 0.0196

**Q.** And the “significance (*), Fisher's PLSD, Immobility Time Average (min 3-6), E2/P4 Sal vs. E2/P4 drug” value [4]?
**A.** * (* p<0.05)

**Q.** What about the “p, Fisher's PLSD, Immobility Time Average (min 3-6), Vehicle Sal vs. Vehicle drug” value (Ovariectomized, hormone Vehicle, 1 week prophylactic drug, Forced Swim Test Day 2, K (10), (2R,6R)-HNK (0.025), FIG. 5F) of the same molecule?
**A.** 0.9193

**Q.** And the “p, Fisher's PLSD, Immobility Time Average (min 3-6), Vehicle drug vs. E2/P4 drug” value [5]?
**A.** 0.0089

**Q.** And the “significance (*), Fisher's PLSD, Immobility Time Average (min 3-6), Vehicle drug vs. E2/P4 drug” value [5]?
**A.** ** (** p<0.01)

**Q.** And the “p, Immobility Time (min 1)” value [6]?
**A.** 0.9401

**Q.** What about the “p, Immobility Time (min 2)” value [6] of the same molecule?
**A.** 0.6027

**Q.** What about the “p, Immobility Time (min 3)” value [6] of the same molecule?
**A.** 0.5146

**Q.** And the “p, Immobility Time (min 4)” value [6]?
**A.** 0.9632

**Q.** What about the “p, Immobility Time (min 5)” value [6] of the same molecule?
**A.** 0.6706

**Q.** And the “p, Immobility Time (min 6)” value [6]?
**A.** 0.7202

**Q.** And the “p, Immobility Time Average (min 3-6)” value [6]?
**A.** 0.6884

**Q.** And the “*, Immobility Time (min 1)” value [7]?
**A.** *** (*** p<0.0001)

**Q.** And the “*, Immobility Time (min 2)” value [7]?
**A.** ** (** p<0.01)

**Q.** And the “*, Immobility Time (min 3)” value [7]?
**A.** ** (** p<0.01)

**Q.** What about the “*, Immobility Time (min 4)” value [7] of the same molecule?
**A.** ** (** p<0.01)

**Q.** And the “*, Immobility Time (min 5)” value [7]?
**A.** ** (** p<0.01)

**Q.** What about the “*, Immobility Time (min 6)” value [7] of the same molecule?
**A.** *** (*** p<0.0001)

**Q.** And the “*, Immobility Time Average (min 1-6)” value [7]?
**A.** *** (*** p<0.0001)

**Q.** And the “p, Immobility Time (min 1)” value [7]?
**A.** <0.0001

**Q.** What about the “p, Immobility Time (min 2)” value [7] of the same molecule?
**A.** 0.0002

**Q.** And the “p, Immobility Time (min 3)” value [7]?
**A.** 0.0002

**Q.** And the “p, Immobility Time (min 4)” value [7]?
**A.** 0.0090

**Q.** And the “p, Immobility Time (min 5)” value [7]?
**A.** 0.0016

**Q.** And the “p, Immobility Time (min 6)” value [7]?
**A.** 0.0001

**Q.** And the “p, Immobility Time Average (min 1-6)” value [7]?
**A.** <0.0001

**Q.** And the “p, Immobility Time (min 1)” value [8]?
**A.** 0.9371

**Q.** And the “p, Immobility Time (min 2)” value [8]?
**A.** 0.5853

**Q.** And the “p, Immobility Time (min 3)” value [8]?
**A.** 0.7490

**Q.** What about the “p, Immobility Time (min 4)” value [8] of the same molecule?
**A.** 0.6033

**Q.** What about the “p, Immobility Time (min 5)” value [8] of the same molecule?
**A.** 0.9482

**Q.** And the “p, Immobility Time (min 6)” value [8]?
**A.** 0.9756

**Q.** And the “p, Immobility Time Average (min 3-6)” value [8]?
**A.** 0.9690

**Q.** What about the “*, Immobility Time (min 1)” value [9] of the same molecule?
**A.** * (* p<0.05)

**Q.** And the “p, Immobility Time (min 1)” value [9]?
**A.** 0.0187

**Q.** What about the “p, Immobility Time (min 1)” value [10] of the same molecule?
**A.** 0.6395

**Q.** And the “p, Immobility Time (min 2)” value [10]?
**A.** 0.9313

**Q.** What about the “p, Immobility Time (min 3)” value [10] of the same molecule?
**A.** 0.7755

**Q.** And the “p, Immobility Time (min 4)” value [10]?
**A.** 0.5198

**Q.** And the “p, Immobility Time (min 5)” value [10]?
**A.** 0.9023

**Q.** What about the “p, Immobility Time (min 6)” value [10] of the same molecule?
**A.** 0.5995

**Q.** What about the “p, Immobility Time Average (min 3-6)” value [10] of the same molecule?
**A.** 0.8325

**Q.** And the “p, Fisher's PLSD, Immobility Time Average (min 3-6), Sham drug vs. OVX drug” value (Same drug, Sham vs. ovariectomized, 1 week prophylactic drug, Forced Swim Test Day 2, K (10), (2R,6R)-HNK (0.025), FIG. 5C)?
**A.** 0.2375

**Q.** What about the “p, Fisher's PLSD, Immobility Time Average (min 3-6), Sham Sal vs. Sham drug” value [11] of the same molecule?
**A.** 0.0405

**Q.** And the “significance (*), Fisher's PLSD, Immobility Time Average (min 3-6), Sham Sal vs. Sham drug” value [11]?
**A.** * (* p<0.05)

**Q.** And the “Immobility in the FST (Day 1 and Day 2) vs saline” value (female mice)?
**A.** Neither (R,S)-ketamine nor (2R,6R)-HNK significantly affected immobility time

**Q.** And the “Immobility in the FST (Day 1 and Day 2) vs saline” value [12]?
**A.** did not reduce immobility levels

**Q.** And the “Prophylactically effective dose in females” value (female mice, 1 week before stressor)?
**A.** 10 mg/kg

**Q.** And the “Immobility in the FST vs saline” value (ovariectomized mice with cyclic E2 and P4 replacement, drug 1 week before CFC, listed as (R, S)-ketamine)?
**A.** significantly less immobile compared to control saline mice; also recorded: significantly reduced immobility

**Q.** And the “Prophylactic efficacy against stress-induced depressive-like behavior” value (female mice)?
**A.** significantly reduced stress-induced depressive-like behavior; also recorded: significantly decreased stress-induced depressive-like behavior; also recorded: effective prophylactics against a variety of stressors; also recorded: protect against stress-induced depressive-like behavior

**Q.** What about the “Prophylactic efficacy against stress-induced depressive-like behavior” value [12] of the same molecule?
**A.** prophylactic against stress-induced depressive-like behavior
